Experimental data published in PubChem BioAssay (NCI).
Where “and” joins values, the source holds several entries; their conditions need not be identical. Identical values can stand only once.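 Where inhibition never reached the appropriate level, the endpoint shown equals the highest concentration tested. Otherwise, values were interpolated linearly from a five-concentration, 48-hour dose response in 96-well plates. GI50: concentration for 50% inhibition of growth. TGI marks complete inhibition of growth.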

Columns and labels:
Assay in all cases: growth of human tumour cells (NCI), 48 h
U251 CNS = system: U251 CNS
IGROV1 ovarian = system: IGROV1 ovarian
KM12 colon = system: KM12 colon
HCT-116 colon = system: HCT-116 colon
HCC-2998 colon = system: HCC-2998 colon
HCT-15 colon = system: HCT-15 colon
HOP-62 NSCLC = system: HOP-62 NSCLC
HOP-92 NSCLC = system: HOP-92 NSCLC
K-562 leukemia = system: K-562 leukemia
MDA-MB-435 = system: MDA-MB-435

COc1ccc(/C=N\O[Si](C)(C)C(C)(C)C)cc1O[Si](C)(C)C(C)(C)C
TGI (U251 CNS): 36 µM | TGI (IGROV1 ovarian): 36 µM | TGI (KM12 colon): 32.7 µM | TGI (HCT-116 colon): 29.1 µM | TGI (HCC-2998 colon): 32.9 µM | TGI (HCT-15 colon): 34 µM | TGI (HOP-62 NSCLC): 36 µM | TGI (HOP-92 NSCLC): 37.6 µM | TGI (K-562 leukemia): 37.2 µM

c1ccc2c(CN3CCC(C4CCN(Cc5cccc6ccccc56)CC4)CC3)cccc2c1
TGI (U251 CNS): 25.5 µM and 47.6 µM | GI50 (IGROV1 ovarian): 32.2 µM and > 79.4 µM | TGI (IGROV1 ovarian): > 100 µM | GI50 (KM12 colon): 10.7 µM and 33.5 µM | TGI (KM12 colon): 33.7 µM and > 100 µM | GI50 (HCT-116 colon): 7.28 µM and 16.3 µM | TGI (HCT-116 colon): 21.1 µM and > 58.2 µM | TGI (HCC-2998 colon): 2.97 µM and 5.61 µM | GI50 (HCT-15 colon): 2.95 µM and 8.46 µM | TGI (HCT-15 colon): 16.6 µM and > 100 µM | TGI (HOP-62 NSCLC): 21.4 µM and > 69.4 µM | TGI (HOP-92 NSCLC): 12 µM and 32.9 µM | TGI (MDA-MB-435): 11.4 µM

O=C1NC(SCc2ccc(F)cc2)=N/C1=C/c1cccc(OCc2ccc(Cl)cc2)c1
GI50 (U251 CNS): 3.83 µM | TGI (U251 CNS): 19.6 µM | GI50 (IGROV1 ovarian): 4.91 µM | TGI (IGROV1 ovarian): > 100 µM | GI50 (KM12 colon): > 100 µM | TGI (KM12 colon): > 100 µM | GI50 (HCT-116 colon): 3.27 µM | TGI (HCT-116 colon): 14.9 µM | GI50 (HCC-2998 colon): 51.1 µM | TGI (HCC-2998 colon): > 100 µM | GI50 (HCT-15 colon): 55.3 µM | TGI (HCT-15 colon): > 100 µM | GI50 (HOP-92 NSCLC): 67.7 µM | TGI (HOP-92 NSCLC): > 100 µM | GI50 (K-562 leukemia): 28.8 µM | TGI (K-562 leukemia): > 100 µM | GI50 (MDA-MB-435): > 100 µM | TGI (MDA-MB-435): > 100 µM

O=C(CC(=O)c1ccccc1)C(=O)NC12CC3CC(CC(C3)C1)C2
TGI (U251 CNS): > 100 µM | TGI (IGROV1 ovarian): > 100 µM | TGI (KM12 colon): > 100 µM | TGI (HCT-116 colon): > 100 µM | TGI (HCC-2998 colon): > 100 µM | TGI (HCT-15 colon): > 54.3 µM | TGI (HOP-62 NSCLC): > 100 µM | TGI (HOP-92 NSCLC): > 100 µM | TGI (K-562 leukemia): > 100 µM

O=C(CC(=O)C1CCOC1=O)C(=O)Nc1ccc(Cl)cc1 (configuration not stated)
TGI (U251 CNS): > 100 µM | TGI (IGROV1 ovarian): > 100 µM | TGI (KM12 colon): > 100 µM | TGI (HCT-116 colon): > 100 µM | TGI (HCC-2998 colon): > 100 µM | TGI (HCT-15 colon): > 100 µM | TGI (HOP-62 NSCLC): > 100 µM | TGI (HOP-92 NSCLC): > 100 µM | TGI (K-562 leukemia): > 100 µM

NS(=O)(=O)c1ccc(N2N=C(c3cccs3)CC2c2ccccc2O)cc1 (configuration not stated)
GI50 (U251 CNS): 0.998 µM | TGI (U251 CNS): 3.73 µM | GI50 (IGROV1 ovarian): 1.6 µM | TGI (IGROV1 ovarian): 14.2 µM | GI50 (KM12 colon): 0.809 µM | TGI (KM12 colon): 1.94 µM | GI50 (HCT-116 colon): 1.15 µM | TGI (HCT-116 colon): 3.96 µM | GI50 (HCC-2998 colon): 1.33 µM | TGI (HCC-2998 colon): 5.12 µM | GI50 (HCT-15 colon): 1.35 µM | TGI (HCT-15 colon): > 33.3 µM | GI50 (HOP-62 NSCLC): 2.67 µM | TGI (HOP-62 NSCLC): 9.46 µM | GI50 (K-562 leukemia): 1.24 µM | TGI (K-562 leukemia): 15.3 µM | GI50 (MDA-MB-435): 0.704 µM | TGI (MDA-MB-435): 1.8 µM

COC1C(O)C(C)OC(O[C@@H]2C[C@H]3CC[C@@H]4[C@H](CC[C@]5(C)[C@@H](C6=CC(=O)OC6)CC[C@]45O)[C@@]3(C)[C@H](O)C2)C1O (some centres not stated)
TGI (U251 CNS): 12.5 µM | TGI (KM12 colon): 1.8 µM | TGI (HCT-116 colon): 0.0994 µM | TGI (HCC-2998 colon): 2.69 µM | TGI (HCT-15 colon): 0.327 µM | TGI (HOP-62 NSCLC): 0.0362 µM | TGI (HOP-92 NSCLC): > 100 µM | TGI (K-562 leukemia): 0.457 µM | TGI (MDA-MB-435): 0.379 µM

O=C1NN=C(c2ccc([N+](=O)[O-])cc2)C1n1nc(-c2ccccc2)c2ccccc2c1=O (configuration not stated)
TGI (U251 CNS): > 100 µM | TGI (IGROV1 ovarian): > 100 µM | TGI (KM12 colon): > 100 µM | TGI (HCT-116 colon): > 100 µM | TGI (HCC-2998 colon): > 100 µM | TGI (HCT-15 colon): > 68.5 µM | TGI (HOP-62 NSCLC): > 100 µM | TGI (HOP-92 NSCLC): > 100 µM | TGI (K-562 leukemia): > 100 µM

CCCCCCCCCCCCCCCCCc1nnc(N)o1
TGI (U251 CNS): > 100 µM | TGI (IGROV1 ovarian): > 100 µM | TGI (KM12 colon): > 100 µM | TGI (HCT-116 colon): > 100 µM | TGI (HCC-2998 colon): > 100 µM | TGI (HCT-15 colon): > 100 µM | TGI (HOP-62 NSCLC): > 100 µM | TGI (HOP-92 NSCLC): > 100 µM | TGI (K-562 leukemia): > 100 µM

CC1=NN(c2ccccc2)C(=O)C1N=Nc1ccc(S(N)(=O)=O)cc1 (configuration not stated)
TGI (U251 CNS): > 100 µM | TGI (IGROV1 ovarian): > 100 µM | TGI (KM12 colon): > 100 µM | TGI (HCT-116 colon): > 100 µM | TGI (HCT-15 colon): > 100 µM | TGI (HOP-62 NSCLC): > 100 µM | TGI (HOP-92 NSCLC): > 100 µM | TGI (K-562 leukemia): > 100 µM | TGI (MDA-MB-435): > 100 µM
